In ChEMBL document CHEMBL4190187, “Discovery of pyrazolopyrimidine derivatives as novel inhibitors of ataxia telangiectasia and rad3 related protein (ATR)” (Bioorg Med Chem Lett, 2017):

Legend:
[1] = biological target: Mitogen-activated protein kinase kinase kinase 5 (Homo sapiens) (UniProt Q99683); assay: Inhibition of recombinant human ASK1 (649 to 946 residues) at 1 uM using myelin basic protein as substrate after 40 mins in presence of [gamma-33P]ATP by scintillation counting method
[2] = biological target: Dual specificity protein kinase CLK2 (Homo sapiens) (UniProt P49760); assay: Inhibition of recombinant human CLK2 (138 to end residues) at 1 uM using YRRAAVPPSPSLSRHSSPHQS(p)EDEEE as substrate after 40 mins in presence of [gamma-33P]ATP by scintillation counting method
[3] = biological target: Proto-oncogene tyrosine-protein kinase Src (Homo sapiens) (UniProt P12931); assay: Inhibition of recombinant human Src (1 to 530 residues) at 1 uM using GGEEEEYFELVKKKK as substrate after 40 mins in presence of [gamma-33P]ATP by scintillation counting method
Sequence of Proto-oncogene tyrosine-protein kinase Src (Homo sapiens) (P12931 2-536 limits assumed): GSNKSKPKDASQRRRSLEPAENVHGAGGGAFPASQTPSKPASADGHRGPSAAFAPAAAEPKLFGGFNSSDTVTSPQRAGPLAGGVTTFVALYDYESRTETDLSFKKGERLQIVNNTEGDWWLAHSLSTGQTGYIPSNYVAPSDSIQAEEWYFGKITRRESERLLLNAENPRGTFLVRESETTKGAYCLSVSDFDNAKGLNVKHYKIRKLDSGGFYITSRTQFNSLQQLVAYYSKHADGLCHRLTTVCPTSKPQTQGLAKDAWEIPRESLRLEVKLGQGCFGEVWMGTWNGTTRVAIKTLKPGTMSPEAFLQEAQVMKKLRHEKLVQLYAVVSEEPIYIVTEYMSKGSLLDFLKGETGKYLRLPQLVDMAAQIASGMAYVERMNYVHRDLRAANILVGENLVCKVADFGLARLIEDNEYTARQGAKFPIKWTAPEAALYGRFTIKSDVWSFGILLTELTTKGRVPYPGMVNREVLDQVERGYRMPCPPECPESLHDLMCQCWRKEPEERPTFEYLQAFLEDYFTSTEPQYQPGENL

[4] = biological target: MAP/microtubule affinity-regulating kinase 4 (Homo sapiens) (UniProt Q96L34); assay: Inhibition of recombinant full-length human MARK4 at 1 uM using KKKVSRSGLYRSPSMPENLNRPR as substrate after 40 mins in presence of [gamma-33P]ATP by scintillation counting method
Sequence of MAP/microtubule affinity-regulating kinase 4 (Homo sapiens) (Q96L34 whole entry): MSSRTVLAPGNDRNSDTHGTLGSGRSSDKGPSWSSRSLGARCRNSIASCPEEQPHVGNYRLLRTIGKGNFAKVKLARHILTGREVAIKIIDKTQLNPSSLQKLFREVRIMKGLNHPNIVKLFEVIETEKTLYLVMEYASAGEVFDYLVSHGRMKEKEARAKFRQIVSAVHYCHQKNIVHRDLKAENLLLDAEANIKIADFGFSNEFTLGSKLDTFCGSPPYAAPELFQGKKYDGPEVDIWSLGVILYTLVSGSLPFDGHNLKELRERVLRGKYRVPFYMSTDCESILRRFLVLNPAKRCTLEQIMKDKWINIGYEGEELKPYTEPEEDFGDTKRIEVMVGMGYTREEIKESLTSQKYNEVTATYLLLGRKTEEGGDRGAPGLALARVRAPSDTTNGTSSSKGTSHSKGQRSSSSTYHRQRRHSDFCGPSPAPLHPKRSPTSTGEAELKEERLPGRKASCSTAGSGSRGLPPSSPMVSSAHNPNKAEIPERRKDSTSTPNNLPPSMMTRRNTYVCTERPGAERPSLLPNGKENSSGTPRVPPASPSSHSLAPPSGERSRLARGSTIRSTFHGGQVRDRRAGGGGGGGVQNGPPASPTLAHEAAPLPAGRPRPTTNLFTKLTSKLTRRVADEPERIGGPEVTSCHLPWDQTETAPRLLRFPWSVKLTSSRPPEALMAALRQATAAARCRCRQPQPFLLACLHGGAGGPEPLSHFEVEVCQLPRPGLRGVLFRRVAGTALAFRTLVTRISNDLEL

[5] = biological target: Mitogen-activated protein kinase 1 (Homo sapiens) (UniProt P28482); assay: Inhibition of recombinant full-length human MAPK1 at 1 uM using myelin basic protein as substrate after 40 mins in presence of [gamma-33P]ATP by scintillation counting method
Sequence of Mitogen-activated protein kinase 1 (Homo sapiens) (P28482 whole entry): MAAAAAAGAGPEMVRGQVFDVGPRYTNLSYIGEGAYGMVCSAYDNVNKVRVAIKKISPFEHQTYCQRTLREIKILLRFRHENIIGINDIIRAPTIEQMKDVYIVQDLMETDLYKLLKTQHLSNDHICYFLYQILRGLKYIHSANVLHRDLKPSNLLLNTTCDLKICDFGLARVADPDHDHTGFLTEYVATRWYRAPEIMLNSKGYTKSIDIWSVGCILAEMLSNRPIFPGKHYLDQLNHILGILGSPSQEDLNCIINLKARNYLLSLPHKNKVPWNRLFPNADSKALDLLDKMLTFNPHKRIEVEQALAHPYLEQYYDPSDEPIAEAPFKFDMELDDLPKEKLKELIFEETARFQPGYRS

[6] = biological target: Mitogen-activated protein kinase 1 (Homo sapiens) (UniProt P28482); assay: Inhibition of recombinant full-length human MAPK2 at 1 uM using myelin basic protein as substrate after 40 mins in presence of [gamma-33P]ATP by scintillation counting method
Mus musculus = assay: Clearance in mouse at 2 mg/kg, iv or 10 mg/kg, po; type: ADME, organism-based; conditions: in vivo
[7] = biological target: Tau-tubulin kinase 2 (Homo sapiens) (UniProt Q6IQ55); assay: Inhibition of recombinant human TTBK2 (1 to 331 residues) at 1 uM using casein as substrate after 40 mins in presence of [gamma-33P]ATP by scintillation counting method
[8] = biological target: Tyrosine-protein kinase Fer (Homo sapiens) (UniProt P16591); assay: Inhibition of recombinant human FER (541 to end residues) at 1 uM using KKKSPGEYVNIEFG as substrate after 40 mins in presence of [gamma-33P]ATP by scintillation counting method
[9] = biological target: Homeodomain-interacting protein kinase 4 (Homo sapiens) (UniProt Q8NE63); assay: Inhibition of recombinant full-length human HIPK4 at 1 uM using RRRFRPASPLRGPPK as substrate after 40 mins in presence of [gamma-33P]ATP by scintillation counting method
[10] = biological target: Serine/threonine-protein kinase SIK3 (Homo sapiens) (UniProt Q9Y2K2); assay: Inhibition of recombinant human SIK3 (1 to 307 residues) at 1 uM using KKKVSRSGLYRSPSMPENLNRPR as substrate after 40 mins in presence of [gamma-33P]ATP by scintillation counting method
Sequence of Serine/threonine-protein kinase SIK3 (Homo sapiens) (Q9Y2K2 whole entry, looked up, the tested form may be a part): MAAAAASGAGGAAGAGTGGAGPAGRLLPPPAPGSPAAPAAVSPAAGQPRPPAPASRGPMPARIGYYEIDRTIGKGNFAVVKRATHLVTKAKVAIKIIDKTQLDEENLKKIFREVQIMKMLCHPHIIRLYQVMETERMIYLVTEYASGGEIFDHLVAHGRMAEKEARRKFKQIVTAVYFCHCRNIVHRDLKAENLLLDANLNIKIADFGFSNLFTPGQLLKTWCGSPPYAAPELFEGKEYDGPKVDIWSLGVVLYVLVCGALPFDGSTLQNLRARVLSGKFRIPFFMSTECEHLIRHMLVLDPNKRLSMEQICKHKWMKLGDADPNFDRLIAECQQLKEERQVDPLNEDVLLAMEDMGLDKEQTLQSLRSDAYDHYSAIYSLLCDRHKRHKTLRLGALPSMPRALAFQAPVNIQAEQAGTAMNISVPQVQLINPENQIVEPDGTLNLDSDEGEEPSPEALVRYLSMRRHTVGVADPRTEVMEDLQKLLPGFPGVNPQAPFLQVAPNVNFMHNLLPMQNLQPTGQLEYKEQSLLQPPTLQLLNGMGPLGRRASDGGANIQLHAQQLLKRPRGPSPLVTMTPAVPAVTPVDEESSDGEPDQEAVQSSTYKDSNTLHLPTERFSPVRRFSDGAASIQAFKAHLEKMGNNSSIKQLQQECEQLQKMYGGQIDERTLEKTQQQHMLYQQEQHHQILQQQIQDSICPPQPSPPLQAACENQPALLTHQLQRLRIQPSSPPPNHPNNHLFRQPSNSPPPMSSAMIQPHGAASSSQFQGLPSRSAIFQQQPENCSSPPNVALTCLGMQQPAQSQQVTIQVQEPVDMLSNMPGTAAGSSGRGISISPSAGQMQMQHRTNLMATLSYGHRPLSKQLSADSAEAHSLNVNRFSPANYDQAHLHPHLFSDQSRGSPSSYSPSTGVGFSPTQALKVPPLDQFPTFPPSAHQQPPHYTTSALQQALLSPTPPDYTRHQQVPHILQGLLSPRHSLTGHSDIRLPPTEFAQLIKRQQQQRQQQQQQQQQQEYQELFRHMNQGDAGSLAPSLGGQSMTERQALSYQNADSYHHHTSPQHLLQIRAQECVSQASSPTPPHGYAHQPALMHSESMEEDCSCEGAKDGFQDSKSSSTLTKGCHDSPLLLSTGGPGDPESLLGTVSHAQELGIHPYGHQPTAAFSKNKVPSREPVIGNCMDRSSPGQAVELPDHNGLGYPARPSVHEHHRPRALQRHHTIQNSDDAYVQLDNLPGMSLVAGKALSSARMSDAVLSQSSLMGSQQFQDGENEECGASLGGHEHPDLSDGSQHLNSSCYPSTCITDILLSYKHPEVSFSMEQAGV

[11] = biological target: Epidermal growth factor receptor (Homo sapiens) (UniProt P00533); assay: Inhibition of recombinant human EGFR (696 to end residues) at 1 uM using poly(Glu,Tyr) 4:1 as substrate after 40 mins in presence of [gamma-33P]ATP by scintillation counting method
[12] = biological target: Dual specificity tyrosine-phosphorylation-regulated kinase 1A (Homo sapiens) (UniProt Q13627); assay: Inhibition of recombinant full-length human DYRK1A at 1 uM using RRRFRPASPLRGPPK as substrate after 40 mins in presence of [gamma-33P]ATP by scintillation counting method
[13] = biological target: Tyrosine-protein kinase Fes/Fps (Homo sapiens) (UniProt P07332); assay: Inhibition of recombinant human FES (2 to end residues) at 1 uM using poly(Glu,Tyr) 4:1 as substrate after 40 mins in presence of [gamma-33P]ATP by scintillation counting method
Sequence of Tyrosine-protein kinase Fes/Fps (Homo sapiens) (P07332 whole entry): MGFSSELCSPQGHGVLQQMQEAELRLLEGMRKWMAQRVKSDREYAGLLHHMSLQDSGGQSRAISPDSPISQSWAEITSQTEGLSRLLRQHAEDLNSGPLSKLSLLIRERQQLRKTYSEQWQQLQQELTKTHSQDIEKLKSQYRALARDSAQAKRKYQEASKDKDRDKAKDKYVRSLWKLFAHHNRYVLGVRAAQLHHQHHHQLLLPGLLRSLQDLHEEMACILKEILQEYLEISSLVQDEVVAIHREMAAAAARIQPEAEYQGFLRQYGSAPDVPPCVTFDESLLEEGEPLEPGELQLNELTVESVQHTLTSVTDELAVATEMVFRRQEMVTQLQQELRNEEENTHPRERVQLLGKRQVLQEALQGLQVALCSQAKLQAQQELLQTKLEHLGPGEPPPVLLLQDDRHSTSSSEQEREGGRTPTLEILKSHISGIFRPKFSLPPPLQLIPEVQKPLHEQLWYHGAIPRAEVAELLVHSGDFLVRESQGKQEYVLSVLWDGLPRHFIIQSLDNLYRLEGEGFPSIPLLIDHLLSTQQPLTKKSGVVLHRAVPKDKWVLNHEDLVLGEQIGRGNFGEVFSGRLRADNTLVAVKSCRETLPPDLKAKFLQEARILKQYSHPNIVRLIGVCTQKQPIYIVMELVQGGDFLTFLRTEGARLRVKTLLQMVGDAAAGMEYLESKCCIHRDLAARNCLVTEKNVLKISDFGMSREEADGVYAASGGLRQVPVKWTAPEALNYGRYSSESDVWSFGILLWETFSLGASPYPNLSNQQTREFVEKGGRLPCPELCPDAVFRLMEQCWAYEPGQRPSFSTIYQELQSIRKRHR

[14] = biological target: Serine/threonine-protein kinase Chk2 (Homo sapiens) (UniProt O96017); assay: Inhibition of recombinant human CHK2 (5 to end residues) at 1 uM using KKKVSRSGLYRSPSMPENLNRPR as substrate after 40 mins in presence of [gamma-33P]ATP by scintillation counting method
[15] = test system: Platelet-derived growth factor receptor alpha (Homo sapiens), P16234 [D842V]; assay: Inhibition of recombinant human PDGFRalpha D842V mutant (550 to end residues) at 1 uM using GGMEDIYFEFMGGKKK as substrate after 40 mins in presence of [gamma-33P]ATP by scintillation counting method
[16] = biological target: Epithelial discoidin domain-containing receptor 1 (Homo sapiens) (UniProt Q08345); assay: Inhibition of recombinant human DDR1 (492 to end residues) at 1 uM using KKKSPGEYVNIEFG as substrate after 40 mins in presence of [gamma-33P]ATP by scintillation counting method
[17] = biological target: Mitogen-activated protein kinase kinase kinase kinase 3 (Homo sapiens) (UniProt Q8IVH8); assay: Inhibition of recombinant human MAP4K3 (1 to 291 residues) at 1 uM using RRRFRPASPLRGPPK as substrate after 40 mins in presence of [gamma-33P]ATP by scintillation counting method
Sequence of Mitogen-activated protein kinase kinase kinase kinase 3 (Homo sapiens) (Q8IVH8 whole entry, the tested form may be a part): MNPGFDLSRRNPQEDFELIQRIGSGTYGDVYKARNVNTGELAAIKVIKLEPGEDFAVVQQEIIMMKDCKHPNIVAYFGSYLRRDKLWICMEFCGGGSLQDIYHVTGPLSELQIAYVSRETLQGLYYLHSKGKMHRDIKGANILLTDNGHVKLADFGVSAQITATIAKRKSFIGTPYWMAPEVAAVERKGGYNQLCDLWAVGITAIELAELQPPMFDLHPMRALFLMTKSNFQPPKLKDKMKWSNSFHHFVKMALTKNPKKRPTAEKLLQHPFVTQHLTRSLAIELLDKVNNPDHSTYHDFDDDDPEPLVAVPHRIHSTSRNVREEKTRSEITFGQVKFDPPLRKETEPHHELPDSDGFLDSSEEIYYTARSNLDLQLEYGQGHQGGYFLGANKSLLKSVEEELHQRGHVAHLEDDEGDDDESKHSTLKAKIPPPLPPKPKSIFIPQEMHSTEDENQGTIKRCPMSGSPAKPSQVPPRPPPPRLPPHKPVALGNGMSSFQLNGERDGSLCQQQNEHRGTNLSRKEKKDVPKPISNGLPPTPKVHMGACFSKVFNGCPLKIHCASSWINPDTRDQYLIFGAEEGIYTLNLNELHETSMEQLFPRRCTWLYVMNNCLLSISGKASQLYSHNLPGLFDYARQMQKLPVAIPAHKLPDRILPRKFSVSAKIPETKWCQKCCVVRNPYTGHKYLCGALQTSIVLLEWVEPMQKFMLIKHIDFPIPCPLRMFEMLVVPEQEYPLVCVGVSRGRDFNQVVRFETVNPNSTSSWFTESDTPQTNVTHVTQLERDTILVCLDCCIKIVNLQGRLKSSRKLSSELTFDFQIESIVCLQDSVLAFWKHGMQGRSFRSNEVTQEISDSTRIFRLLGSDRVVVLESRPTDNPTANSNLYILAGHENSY

[18] = biological target: Inhibitor of nuclear factor kappa-B kinase subunit alpha (Homo sapiens) (UniProt O15111); assay: Inhibition of recombinant full-length human IKKalpha at 1 uM using peptide as substrate after 40 mins in presence of [gamma-33P]ATP by scintillation counting method
[19] = test system: RAC-gamma serine/threonine-protein kinase (Homo sapiens), Q9Y243 [S472D]; assay: Inhibition of recombinant human PKBgamma S472D mutant (117 to end residues) at 1 uM using GRPRTSSFAEGKK as substrate after 40 mins in presence of [gamma-33P]ATP by scintillation counting method
[20] = biological target: Serine/threonine-protein kinase 32C (Homo sapiens) (UniProt Q86UX6); assay: Inhibition of recombinant full-length human STK32C at 1 uM using casein as substrate after 120 mins in presence of [gamma-33P]ATP by scintillation counting method
[21] = biological target: Serine/threonine-protein kinase tousled-like 1 (Homo sapiens) (UniProt Q9UKI8); assay: Inhibition of recombinant full-length human TLK1 at 1 uM using casein as substrate after 40 mins in presence of [gamma-33P]ATP by scintillation counting method
[22] = biological target: Mast/stem cell growth factor receptor Kit (Homo sapiens) (UniProt P10721); assay: Inhibition of recombinant human cKit (544 to end residues) at 1 uM using poly(Glu,Tyr) 4:1 as substrate after 40 mins in presence of [gamma-33P]ATP by scintillation counting method
[23] = biological target: Protein kinase C gamma type (Homo sapiens) (UniProt P05129); assay: Inhibition of recombinant full-length human PKCgamma at 1 uM using histone H1 as substrate after 40 mins in presence of [gamma-33P]ATP by scintillation counting method

`CS(=O)(=O)c1ccc(-n2nc(-c3cnc4[nH]ccc4c3)c3c(N)ncnc32)cc1` showed an inhibition [1] of -7%, an inhibition [2] of 13% and an inhibition [3] of 64%. The inhibition [4] was -3%, the inhibition [5] was 2% and the inhibition [6] was 1%. For the same compound, the CL (Mus musculus) was 22.2 mL/min/kg, the inhibition [7] was 4% and the inhibition [8] was 1%. It also gave an inhibition [9] of -4%, an inhibition [10] of 20% and an inhibition [11] of 3%. The inhibition [12] was -6%, the inhibition [13] was -5% and the inhibition [14] was -3%. For the same compound, the inhibition [15] was 47%, the inhibition [16] was 92% and the inhibition [17] was 2%. The inhibition [18] was -5%, the inhibition [19] was -7% and the inhibition [20] was 5%. It also gave an inhibition [21] of 3%, an inhibition [22] of 4% and an inhibition [23] of 3%.
